The record followed here is US9221756B2, “Pyrrole derivatives” (priority 2011, dated 2015).

By IC50 is commonly meant the midpoint of a concentration-inhibition curve. The low end stands for higher potency, the high end for lower potency.

The target of the first assay is pneumolysin (Streptococcus pneumoniae serotype 2, UniProt Q04IN8). The experiment in a line: Inhibition of the haemolytic activity of pneumolysin (sheep erythrocytes). It counts as cell-based. The settings on record: IC50, inhibition of pneumolysin-induced haemolysis of sheep erythrocytes; class symbols of Table 1.
pneumolysin, sequence (Q04IN8 whole entry): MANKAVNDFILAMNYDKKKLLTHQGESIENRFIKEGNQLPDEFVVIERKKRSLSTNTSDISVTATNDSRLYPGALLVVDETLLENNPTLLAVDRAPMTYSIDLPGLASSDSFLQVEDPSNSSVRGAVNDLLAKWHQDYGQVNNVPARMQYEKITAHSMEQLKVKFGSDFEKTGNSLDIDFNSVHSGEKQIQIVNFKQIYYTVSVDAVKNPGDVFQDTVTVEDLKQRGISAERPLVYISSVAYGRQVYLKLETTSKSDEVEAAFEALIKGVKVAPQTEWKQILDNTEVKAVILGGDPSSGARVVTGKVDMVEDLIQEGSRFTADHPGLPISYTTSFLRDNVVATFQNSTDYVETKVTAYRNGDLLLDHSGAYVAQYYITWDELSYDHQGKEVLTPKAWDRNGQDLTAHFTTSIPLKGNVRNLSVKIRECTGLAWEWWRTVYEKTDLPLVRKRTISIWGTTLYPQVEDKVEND
Compound `CCOC(=O)c1c(O)c(O)c(C#N)n1-c1ccc(F)cc1` [UL1-039, ethyl 5-cyano-1-(4-fluorophenyl)-3,4-dihydroxy-1H-pyrrole-2-carboxylate] yielded an IC50 of 20 to 60 µM.
Regarding `CCOC(=O)c1c(O)c(O)c(C(=O)N2CCOCC2)n1-c1ccc(OC)cc1` [UL1-040, ethyl 3,4-dihydroxy-1-(4-methoxyphenyl)-5-(morpholine-4-carbonyl)-1H-pyrrole-2-carboxylate], the IC50 is less than 10 µM.
Still for that read-out and setting: in the case of `CCOC(=O)c1c(O)c(O)c(C(=O)N(CC)CC)n1-c1ccc(OC)cc1` [UL1-041, ethyl 5-(diethylcarbamoyl)-3,4-dihydroxy-1-(4-methoxyphenyl)-1H-pyrrole-2-carboxylate] it was less than 10 µM; in that of `CCOC(=O)c1c(O)c(O)c(C(=O)N(C)C)n1-c1ccc(I)cc1` [UL1-042, ethyl 5-(dimethylcarbamoyl)-3,4-dihydroxy-1-(4-iodophenyl)-1H-pyrrole-2-carboxylate], less than 10 µM.
On the same count and under the same terms, in the case of `CCOC(=O)c1c(O)c(O)c(C(=O)N(C)C)n1-c1ccc(OC)c(I)c1` [UL1-043, ethyl 5-(dimethylcarbamoyl)-3,4-dihydroxy-1-(3-iodo-4-methoxyphenyl)-1H-pyrrole-2-carboxylate] it was less than 10 µM; in that of `CCOc1ccc(-n2c(C(=O)N(CC)CC)c(OCc3ccccc3)c(OCc3ccccc3)c2C(=O)N(CC)CC)cc1` [UL1-045, 3,4-bis(benzyloxy)-1-(4-ethoxyphenyl)-N^2,N^2,N^5,N^5-tetraethyl-1H-pyrrole-2,5-dicarboxamide], less than 10 µM; in that of `CCN(CC)C(=O)c1c(OCc2ccccc2)c(OCc2ccccc2)c(C(=O)N(CC)CC)n1-c1ccc(OC)cc1` [UL1-046, 3,4-bis(benzyloxy)-N^2,N^2,N^5,N^5-tetraethyl-1-(4-methoxyphenyl)-1H-pyrrole-2,5-dicarboxamide], less than 10 µM.
`COc1ccc(-n2c(C(=O)N(C)C)c(OCc3ccccc3)c(OCc3ccccc3)c2C(=O)N(C)C)cc1` [UL1-047, 3,4-bis(benzyloxy)-1-(4-methoxyphenyl)-N^2,N^2,N^5,N^5-tetramethyl-1H-pyrrole-2,5-dicarboxamide] displayed a half-maximal inhibitory concentration (IC50) of 10 to 20 µM.
Same read-out and setting: in the case of `COc1ccc(-n2c(C(=O)N3CCN(C(=O)OC(C)(C)C)CC3)c(OCc3ccccc3)c(OCc3ccccc3)c2C(=O)N2CCN(C(=O)OC(C)(C)C)CC2)cc1` [UL1-048, di-tert-butyl 4,4′-(3,4-bis(benzyloxy)-1-(4-methoxyphenyl)-1H-pyrrole-2,5-dicarbonyl)bis(piperazine-1-carboxylate)] it was less than 10 µM; in that of `COc1ccc(-n2c(C(=O)N3CCCCC3)c(OCc3ccccc3)c(OCc3ccccc3)c2C(=O)N2CCCCC2)cc1` [UL1-049, (3,4-bis(benzyloxy)-1-(4-methoxyphenyl)-1H-pyrrole-2,5-diyl)bis(piperidin-1-ylmethanone)], less than 10 µM.
On the same count and under the same terms, in the case of `COc1ccccc1-n1c(C(=O)N(C)C)c(OCc2ccccc2)c(OCc2ccccc2)c1C(=O)N(C)C` [UL1-050, 3,4-bis(benzyloxy)-1-(2-methoxyphenyl)-N^2,N^2,N^5,N^5-tetramethyl-1H-pyrrole-2,5-dicarboxamide] it was 10 to 20 µM.
Take `COc1ccccc1-n1c(C(=O)N2CCOCC2)c(OCc2ccccc2)c(OCc2ccccc2)c1C(=O)N1CCOCC1` [UL1-051, (3,4-bis(benzyloxy)-1-(2-methoxyphenyl)-1H-pyrrole-2,5-diyl)bis(morpholinomethanone)]: the IC50 lay in the range of 20 to 60 µM.
In turn, `CCOc1ccc(-n2c(C(=O)N(C)C)c(OCc3ccccc3)c(OCc3ccccc3)c2C(=O)N(C)C)cc1` [UL1-052, 3,4-bis(benzyloxy)-1-(4-ethoxyphenyl)-N^2,N^2,N^5,N^5-tetramethyl-1H-pyrrole-2,5-dicarboxamide] registered an IC50 of less than 10 µM.
The same measure, in the same setting: in the case of `CCOc1ccc(-n2c(C(=O)N3CCOCC3)c(OCc3ccccc3)c(OCc3ccccc3)c2C(=O)N2CCOCC2)cc1` [UL1-053, (3,4-bis(benzyloxy)-1-(4-ethoxyphenyl)-1H-pyrrole-2,5-diyl)bis(morpholinomethanone)] it was 10 to 20 µM.
`CN(C)C(=O)c1c(OCc2ccccc2)c(OCc2ccccc2)c(C(=O)N(C)C)n1-c1ccc(C(F)(F)F)cc1` [UL1-054, 3,4-bis(benzyloxy)-N^2,N^2,N^5,N^5-tetramethyl-1-(4-(trifluoromethyl)phenyl)-1H-pyrrole-2,5-dicarboxamide] returned an IC50 of 10 to 20 µM.
On the same count and under the same terms, in the case of `CCNC(=O)c1c(OCc2ccccc2)c(OCc2ccccc2)c(C(=O)N(C)C)n1-c1ccc(OC)cc1` [UL1-055, 3,4-bis(benzyloxy)-N^2-ethyl-1-(4-methoxyphenyl)-N^5,N^5-dimethyl-1H-pyrrole-2,5-dicarboxamide] it was 10 to 20 µM; in that of `COc1ccc(-n2c(C(=O)N(C)C)c(OCc3ccccc3)c(OCc3ccccc3)c2C(=O)N2CCN(C)CC2)cc1` [UL1-056, 3,4-bis(benzyloxy)-1-(4-methoxyphenyl)-N,N-dimethyl-5-(4-methylpiperazine-1-carbonyl)-1H-pyrrole-2-carboxamide], 10 to 20 µM.
Still for that read-out and setting: in the case of `COc1ccc(-n2c(C(=O)N(C)C)c(OCc3ccccc3)c(OCc3ccccc3)c2C(=O)N2CCCCC2)cc1` [UL1-057, 3,4-bis(benzyloxy)-1-(4-methoxyphenyl)-N,N-dimethyl-5-(piperidine-1-carbonyl)-1H-pyrrole-2-carboxamide] it was less than 10 µM; in that of `COc1ccc(-n2c(C(=O)N(C)C)c(OCc3ccccc3)c(OCc3ccccc3)c2C(=O)N2CCOCC2)cc1` [UL1-058, 3,4-bis(benzyloxy)-1-(4-methoxyphenyl)-N,N-dimethyl-5-(morpholine-4-carbonyl)-1H-pyrrole-2-carboxamide], 20 to 60 µM; in that of `COc1ccc(-n2c(C(=O)N3CCN(C(C)=O)CC3)c(OCc3ccccc3)c(OCc3ccccc3)c2C(=O)N2CCN(C(C)=O)CC2)cc1` [UL1-059, 1,1′-(4,4′-(3,4-bis(benzyloxy)-1-(4-methoxyphenyl)-1H-pyrrole-2,5-dicarbonyl)bis(piperazine-4,1-diyl))diethanone], 20 to 60 µM.
On the same count and under the same terms, in the case of `CCOC(=O)c1c(OCc2ccccc2)c(OCc2ccccc2)c(C#N)n1-c1ccc(F)cc1` [UL1-060, ethyl 3,4-bis(benzyloxy)-5-cyano-1-(4-fluorophenyl)-1H-pyrrole-2-carboxylate] it was 20 to 60 µM; in that of `CN(C)C(=O)c1c(OCc2ccccc2)c(OCc2ccccc2)c(C#N)n1-c1ccc(F)cc1` [UL1-061, 3,4-bis(benzyloxy)-5-cyano-1-(4-fluorophenyl)-N,N-dimethyl-1H-pyrrole-2-carboxamide], less than 10 µM; in that of `CCOC(=O)c1c(OCc2ccccc2)c(OCc2ccccc2)c(C(=O)N(C)C)n1-c1ccc(I)cc1` [UL1-062, ethyl 3,4-bis(benzyloxy)-5-(dimethylcarbamoyl)-1-(4-iodophenyl)-1H-pyrrole-2-carboxylate], less than 10 µM.
`COc1ccc(-n2c(C(N)=O)c(OCc3ccccc3)c(OCc3ccccc3)c2C(N)=O)cc1` [UL1-072, 3,4-bis(benzyloxy)-1-(4-methoxyphenyl)-1H-pyrrole-2,5-dicarboxamide]: the half-inhibitory concentration (IC50) fell in the range of 20 to 60 µM.
Still for that read-out and setting: in the case of `COc1ccc(-n2c(C(N)=O)c(O)c(O)c2C(N)=O)cc1` [UL1-073, 3,4-dihydroxy-1-(4-methoxyphenyl)-1H-pyrrole-2,5-dicarboxamide] it was less than 10 µM.
On the same count and under the same terms, in the case of `CCNC(=O)c1c(OCc2ccccc2)c(OCc2ccccc2)c(C(=O)NCC)n1-c1ccc(OC)cc1` [UL1-074, 3,4-bis(benzyloxy)-N2,N5-diethyl-1-(4-methoxyphenyl)-1H-pyrrole-2,5-dicarboxamide] it was 20 to 60 µM.
Consider `NC(=O)c1c(OCc2ccccc2)c(OCc2ccccc2)c(C(N)=O)n1-c1ccc(F)cc1` [UL1-075, 3,4-bis(benzyloxy)-1-(4-fluorophenyl)-1H-pyrrole-2,5-dicarboxamide], for which the IC50 lay within 20 to 60 µM.
On the same count and under the same terms, in the case of `NC(=O)c1c(O)c(O)c(C(N)=O)n1-c1ccc(F)cc1` [UL1-076, 1-(4-fluorophenyl)-3,4-dihydroxy-1H-pyrrole-2,5-dicarboxamide] it was 10 to 20 µM.
Still for that read-out and setting: in the case of `CCOc1ccc(-n2c(C(N)=O)c(O)c(O)c2C(N)=O)cc1` [UL1-077, 1-(4-ethoxyphenyl)-3,4-dihydroxy-1H-pyrrole-2,5-dicarboxamide] it was 20 to 60 µM; in that of `CCNC(=O)c1c(O)c(O)c(C(=O)NCC)n1-c1ccc(OCC)cc1` [UL1-078, 1-(4-ethoxyphenyl)-N2,N5-diethyl-3,4-dihydroxy-1H-pyrrole-2,5-dicarboxamide], less than 10 µM.
On the same count and under the same terms, in the case of `CCOC(=O)c1c(OCc2ccccc2)c(OCc2ccccc2)c(C(N)=O)n1-c1ccc(OC)cc1` [UL1-079, ethyl 3,4-bis(benzyloxy)-5-carbamoyl-1-(4-methoxyphenyl)-1H-pyrrole-2-carboxylate] it was less than 10 µM; in that of `CCOC(=O)c1c(O)c(O)c(C(N)=O)n1-c1ccc(OC)cc1` [UL1-080, ethyl 5-carbamoyl-3,4-dihydroxy-1-(4-methoxyphenyl)-1H-pyrrole-2-carboxylate], less than 10 µM; in that of `CCOC(=O)c1c(OCc2ccccc2)c(OCc2ccccc2)c(-c2ccccc2OC)n1-c1ccc(OC)cc1` [UL1-081, ethyl 3,4-bis(benzyloxy)-5-(2-methoxyphenyl)-1-(4-methoxyphenyl)-1H-pyrrole-2-carboxylate], 20 to 60 µM.
Compound `CCOC(=O)c1c(OCc2ccccc2)c(OCc2ccccc2)c(-c2ccccn2)n1-c1ccc(OC)cc1` [UL1-082, ethyl 3,4-bis(benzyloxy)-1-(4-methoxyphenyl)-5-(pyridin-2-yl)-1H-pyrrole-2-carboxylate] came in with an IC50 of 10 to 20 µM.
Compound `CCOC(=O)c1c(O)c(O)c(-c2ccccn2)n1-c1ccc(OC)cc1` [UL1-083, ethyl 3,4-dihydroxy-1-(4-methoxyphenyl)-5-(pyridin-2-yl)-1H-pyrrole-2-carboxylate] gave a half-inhibitory concentration (IC50) of less than 10 µM.
Still for that read-out and setting: in the case of `CCOC(=O)c1c(OCc2ccccc2)c(OCc2ccccc2)c(-c2ccncc2)n1-c1ccc(OC)cc1` [UL1-084, ethyl 3,4-bis(benzyloxy)-1-(4-methoxyphenyl)-5-(pyridin-4-yl)-1H-pyrrole-2-carboxylate] it was less than 10 µM.

The same assay, now with this note: IC50, inhibition of pneumolysin-induced haemolysis of sheep erythrocytes; specific values.
With `COc1ccc(-n2c(C(=O)N3CCCCC3)c(OCc3ccccc3)c(OCc3ccccc3)c2C(=O)N2CCCCC2)cc1` [UL1-049, (3,4-bis(benzyloxy)-1-(4-methoxyphenyl)-1H-pyrrole-2,5-diyl)bis(piperidin-1-ylmethanone)], half-maximal inhibition (IC50) required 0.479 µM. In other words, the sub-micromolar range.
